Experimental data published in ChEMBL document CHEMBL1909046, “DrugMatrix in vitro pharmacology data”.

Key:
Androgen receptor = biological target: T1, Androgen receptor (Rattus norvegicus, UniProt P15207)
T1 sequence (P15207 whole entry): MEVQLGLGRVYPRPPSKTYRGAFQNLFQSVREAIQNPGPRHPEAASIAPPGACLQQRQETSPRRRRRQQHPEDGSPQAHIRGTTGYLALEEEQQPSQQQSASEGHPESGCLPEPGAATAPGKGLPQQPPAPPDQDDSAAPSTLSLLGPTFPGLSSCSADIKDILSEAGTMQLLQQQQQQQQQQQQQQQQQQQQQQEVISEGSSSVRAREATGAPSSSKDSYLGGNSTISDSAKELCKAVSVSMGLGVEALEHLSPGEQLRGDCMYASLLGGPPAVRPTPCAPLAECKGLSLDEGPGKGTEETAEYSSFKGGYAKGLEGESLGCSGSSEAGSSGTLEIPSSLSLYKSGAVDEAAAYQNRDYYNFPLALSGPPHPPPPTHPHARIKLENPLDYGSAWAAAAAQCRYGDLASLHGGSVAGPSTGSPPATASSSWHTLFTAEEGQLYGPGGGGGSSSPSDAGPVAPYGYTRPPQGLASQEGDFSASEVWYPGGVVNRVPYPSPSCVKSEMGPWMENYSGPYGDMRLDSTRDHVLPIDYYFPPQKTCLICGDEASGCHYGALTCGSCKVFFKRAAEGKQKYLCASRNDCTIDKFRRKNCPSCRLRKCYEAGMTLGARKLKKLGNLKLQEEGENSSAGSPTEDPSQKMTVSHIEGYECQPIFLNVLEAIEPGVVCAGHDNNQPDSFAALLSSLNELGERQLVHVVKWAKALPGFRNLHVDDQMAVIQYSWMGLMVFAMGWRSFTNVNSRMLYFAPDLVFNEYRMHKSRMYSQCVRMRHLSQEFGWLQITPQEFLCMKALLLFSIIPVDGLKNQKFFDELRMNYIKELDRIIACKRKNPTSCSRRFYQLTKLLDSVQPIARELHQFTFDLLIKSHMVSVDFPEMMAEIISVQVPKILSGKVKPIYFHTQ

Cytochrome P450 3A4 = Cytochrome P450 3A4 (Homo sapiens, UniProt P08684)
Sequence of Cytochrome P450 3A4 (P08684 whole entry): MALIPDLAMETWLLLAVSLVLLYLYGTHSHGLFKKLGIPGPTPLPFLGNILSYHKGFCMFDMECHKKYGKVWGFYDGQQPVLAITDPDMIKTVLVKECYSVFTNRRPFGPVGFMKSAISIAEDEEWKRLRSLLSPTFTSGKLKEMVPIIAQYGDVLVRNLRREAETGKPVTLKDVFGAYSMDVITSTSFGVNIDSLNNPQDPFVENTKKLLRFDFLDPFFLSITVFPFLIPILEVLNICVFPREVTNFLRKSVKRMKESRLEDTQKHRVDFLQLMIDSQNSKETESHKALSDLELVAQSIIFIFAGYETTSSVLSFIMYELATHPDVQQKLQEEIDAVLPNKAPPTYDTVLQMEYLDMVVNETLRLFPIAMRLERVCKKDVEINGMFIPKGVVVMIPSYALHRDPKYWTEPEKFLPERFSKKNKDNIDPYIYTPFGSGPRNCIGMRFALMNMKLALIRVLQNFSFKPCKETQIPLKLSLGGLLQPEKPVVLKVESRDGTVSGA

Cytochrome P450 2C19 = Cytochrome P450 2C19 (Homo sapiens, UniProt P33261)
Sequence of Cytochrome P450 2C19 (P33261 whole entry): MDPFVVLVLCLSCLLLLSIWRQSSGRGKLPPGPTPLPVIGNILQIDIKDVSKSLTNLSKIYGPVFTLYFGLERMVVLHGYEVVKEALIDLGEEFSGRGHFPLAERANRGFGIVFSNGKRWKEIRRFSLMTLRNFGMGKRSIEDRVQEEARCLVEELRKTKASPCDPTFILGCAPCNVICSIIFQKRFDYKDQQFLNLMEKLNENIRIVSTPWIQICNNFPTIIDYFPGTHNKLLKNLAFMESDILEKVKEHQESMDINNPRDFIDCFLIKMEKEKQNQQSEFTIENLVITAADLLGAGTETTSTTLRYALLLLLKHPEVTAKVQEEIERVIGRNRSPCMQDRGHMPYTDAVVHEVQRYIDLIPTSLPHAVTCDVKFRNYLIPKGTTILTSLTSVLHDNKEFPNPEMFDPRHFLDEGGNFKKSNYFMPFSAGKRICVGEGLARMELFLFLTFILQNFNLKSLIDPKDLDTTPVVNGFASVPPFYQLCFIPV

Cytochrome P450 2C9 = Cytochrome P450 2C9 (Homo sapiens, UniProt P11712)
Sequence of Cytochrome P450 2C9 (P11712 whole entry): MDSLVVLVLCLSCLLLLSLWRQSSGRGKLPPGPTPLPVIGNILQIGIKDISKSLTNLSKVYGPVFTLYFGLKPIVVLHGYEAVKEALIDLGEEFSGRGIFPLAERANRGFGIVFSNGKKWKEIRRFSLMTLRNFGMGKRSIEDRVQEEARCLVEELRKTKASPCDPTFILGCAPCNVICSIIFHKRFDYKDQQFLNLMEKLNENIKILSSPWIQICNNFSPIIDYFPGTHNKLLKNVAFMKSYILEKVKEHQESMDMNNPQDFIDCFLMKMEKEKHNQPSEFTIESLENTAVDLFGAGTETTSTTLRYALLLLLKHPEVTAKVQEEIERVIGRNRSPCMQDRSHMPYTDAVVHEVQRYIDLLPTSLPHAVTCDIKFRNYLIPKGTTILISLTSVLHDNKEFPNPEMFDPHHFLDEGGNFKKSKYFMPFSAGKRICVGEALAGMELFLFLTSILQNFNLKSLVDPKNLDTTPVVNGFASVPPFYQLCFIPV

[1] = biological target: Voltage-gated inwardly rectifying potassium channel KCNH2 (Homo sapiens, UniProt Q12809)
Sequence of Voltage-gated inwardly rectifying potassium channel KCNH2 (Q12809 whole entry): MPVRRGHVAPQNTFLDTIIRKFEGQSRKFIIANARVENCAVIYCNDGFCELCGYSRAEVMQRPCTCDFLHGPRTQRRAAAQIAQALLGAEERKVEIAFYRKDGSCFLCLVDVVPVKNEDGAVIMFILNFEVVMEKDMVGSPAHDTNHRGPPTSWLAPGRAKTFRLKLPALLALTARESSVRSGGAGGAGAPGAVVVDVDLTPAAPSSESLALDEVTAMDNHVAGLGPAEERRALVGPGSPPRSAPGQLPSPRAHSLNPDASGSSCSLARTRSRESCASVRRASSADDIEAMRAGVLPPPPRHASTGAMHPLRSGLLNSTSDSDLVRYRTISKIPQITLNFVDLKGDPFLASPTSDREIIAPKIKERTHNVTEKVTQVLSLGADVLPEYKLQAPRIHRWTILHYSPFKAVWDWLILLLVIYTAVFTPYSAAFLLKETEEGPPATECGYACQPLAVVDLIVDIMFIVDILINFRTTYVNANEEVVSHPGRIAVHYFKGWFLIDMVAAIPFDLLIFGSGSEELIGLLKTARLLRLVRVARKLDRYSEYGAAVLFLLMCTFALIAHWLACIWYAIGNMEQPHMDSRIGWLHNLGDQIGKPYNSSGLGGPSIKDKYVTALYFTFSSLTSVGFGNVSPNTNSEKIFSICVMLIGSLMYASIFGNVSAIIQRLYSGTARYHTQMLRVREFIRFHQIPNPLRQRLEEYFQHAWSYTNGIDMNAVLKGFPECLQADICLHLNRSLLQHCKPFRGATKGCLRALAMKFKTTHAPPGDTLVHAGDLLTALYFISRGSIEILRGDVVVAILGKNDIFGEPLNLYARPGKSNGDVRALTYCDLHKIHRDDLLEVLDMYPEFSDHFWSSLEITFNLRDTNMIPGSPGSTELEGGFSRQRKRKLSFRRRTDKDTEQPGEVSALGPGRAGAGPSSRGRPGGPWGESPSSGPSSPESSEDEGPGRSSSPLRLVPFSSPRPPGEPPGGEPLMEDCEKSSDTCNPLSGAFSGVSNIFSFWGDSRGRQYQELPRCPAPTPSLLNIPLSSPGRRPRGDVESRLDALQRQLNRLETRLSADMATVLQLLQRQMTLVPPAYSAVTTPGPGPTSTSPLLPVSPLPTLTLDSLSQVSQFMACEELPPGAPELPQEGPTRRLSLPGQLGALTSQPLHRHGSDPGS

Cytochrome P450 2D6 = Cytochrome P450 2D6 (Homo sapiens, UniProt P10635)
Sequence of Cytochrome P450 2D6 (P10635 whole entry): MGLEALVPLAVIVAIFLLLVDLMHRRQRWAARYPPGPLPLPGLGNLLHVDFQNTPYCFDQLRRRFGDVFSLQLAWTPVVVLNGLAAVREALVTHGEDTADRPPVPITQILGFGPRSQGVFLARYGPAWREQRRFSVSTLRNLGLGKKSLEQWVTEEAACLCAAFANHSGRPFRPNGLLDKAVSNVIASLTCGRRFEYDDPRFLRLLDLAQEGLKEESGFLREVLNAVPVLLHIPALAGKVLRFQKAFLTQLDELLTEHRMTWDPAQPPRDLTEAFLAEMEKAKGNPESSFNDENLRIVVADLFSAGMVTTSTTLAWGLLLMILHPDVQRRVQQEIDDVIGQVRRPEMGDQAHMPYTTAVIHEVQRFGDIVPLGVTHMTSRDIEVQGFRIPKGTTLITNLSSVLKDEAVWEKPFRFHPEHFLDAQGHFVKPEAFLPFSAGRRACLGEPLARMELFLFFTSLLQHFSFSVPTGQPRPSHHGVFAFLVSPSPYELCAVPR

Glucocorticoid receptor = biological target: T2, Glucocorticoid receptor (Homo sapiens, UniProt P04150); experiment: biochemical
T2 sequence (P04150 whole entry): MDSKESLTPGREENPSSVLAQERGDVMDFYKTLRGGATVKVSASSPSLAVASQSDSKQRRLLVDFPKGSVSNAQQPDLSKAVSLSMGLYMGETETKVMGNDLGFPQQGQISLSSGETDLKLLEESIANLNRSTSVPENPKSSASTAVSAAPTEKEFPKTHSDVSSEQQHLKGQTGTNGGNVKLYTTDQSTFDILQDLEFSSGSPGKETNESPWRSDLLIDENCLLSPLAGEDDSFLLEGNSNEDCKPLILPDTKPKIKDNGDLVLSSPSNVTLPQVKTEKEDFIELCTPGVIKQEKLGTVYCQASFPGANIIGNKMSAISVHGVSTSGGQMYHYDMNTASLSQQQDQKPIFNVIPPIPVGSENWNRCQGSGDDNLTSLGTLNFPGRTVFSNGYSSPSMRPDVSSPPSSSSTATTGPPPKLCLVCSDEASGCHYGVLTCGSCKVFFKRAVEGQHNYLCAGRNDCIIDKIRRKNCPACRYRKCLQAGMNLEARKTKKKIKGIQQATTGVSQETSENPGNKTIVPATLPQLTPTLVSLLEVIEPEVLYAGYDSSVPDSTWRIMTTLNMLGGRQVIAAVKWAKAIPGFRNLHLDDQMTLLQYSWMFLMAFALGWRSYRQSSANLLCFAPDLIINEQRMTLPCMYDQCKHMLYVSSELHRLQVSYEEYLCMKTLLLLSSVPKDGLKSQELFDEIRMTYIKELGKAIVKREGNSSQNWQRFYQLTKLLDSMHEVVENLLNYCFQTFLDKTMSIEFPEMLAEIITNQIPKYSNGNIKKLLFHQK
Also: in other assays of this panel Not Active means under 50% inhibition at 10 µM.

Compound: C[C@@H]1C[C@H]2[C@@H]3CCC4=CC(=O)C=C[C@]4(C)C3=CC[C@]2(C)[C@H]1C(=O)CN1CCN(c2cc(N3CCCC3)nc(N3CCCC3)n2)CC1 [TIRILAZAD]
- IC50 (Androgen receptor): Not Active

Compound: CC(C)OC(=O)C(C)(C)Oc1ccc(C(=O)c2ccc(Cl)cc2)cc1 [FENOFIBRATE]
- IC50 (Androgen receptor): Not Active

Compound: CC1=C(CC(=O)O)c2cc(F)ccc2/C1=C\c1ccc(S(C)(=O)=O)cc1 [EXISULIND]
- IC50 (Androgen receptor): Not Active

Compound: CO[C@H]1C[C@@H]2CC[C@@H](C)[C@@](O)(O2)C(=O)C(=O)N2CCCC[C@H]2C(=O)O[C@H]([C@H](C)C[C@@H]2CC[C@@H](O)[C@H](OC)C2)CC(=O)[C@H](C)/C=C(\C)[C@@H](O)[C@@H](OC)C(=O)[C@H](C)C[C@H](C)/C=C/C=C/C=C/1C [SIROLIMUS]
- IC50 (Cytochrome P450 3A4): 2000 nM
- IC50 (Androgen receptor): Not Active
- IC50 (Cytochrome P450 2C19): 4000 nM
- IC50 (Cytochrome P450 2C9): 2000 nM

Compound: OCCN1CCN(CCCN2c3ccccc3Sc3ccc(C(F)(F)F)cc32)CC1 [FLUPHENAZINE]
- IC50 [1]: 5710 nM
- Ki [1]: 4670 nM

Compound: THIMEROSAL
- IC50 (Androgen receptor): Not Active
- Ki (Androgen receptor): Not Active

Compound: CN[C@@H]1[C@H](O)[C@H](NC)[C@H]2O[C@@]3(O)C(=O)C[C@@H](C)O[C@H]3O[C@@H]2[C@H]1O [SPECTINOMYCIN]
- IC50 (Androgen receptor): Not Active

Compound: COc1cc(N)nc2[nH]c(-c3ccc(F)cc3)c(-c3ccncc3)c12
- IC50 (Cytochrome P450 3A4): 1000 nM
- IC50 (Androgen receptor): Not Active
- IC50 (Cytochrome P450 2C9): 1000 nM
- IC50 (Cytochrome P450 2D6): 200 nM

Compound: C=C(C)[C@H]1Cc2c(ccc3c2O[C@@H]2COc4cc(OC)c(OC)cc4[C@@H]2C3=O)O1 [ROTENONE]
- IC50 (Androgen receptor): Not Active
- IC50 (Cytochrome P450 2C19): 3650 nM

Compound: Nc1nc2c(c(=O)[nH]1)N(C=O)C(CNc1ccc(C(=O)N[C@@H](CCC(=O)O)C(=O)O)cc1)CN2 (stereo not given in full) [LEUCOVORIN]
- IC50 (Androgen receptor): Not Active

Compound: COc1cc(C(=O)NS(=O)(=O)c2ccccc2C)ccc1Cc1cn(C)c2ccc(NC(=O)OC3CCCC3)cc12 [ZAFIRLUKAST]
- IC50 (Cytochrome P450 2C9): 2260 nM

Compound: STANNOUS FLUORIDE
- IC50 (Androgen receptor): Not Active
- Ki (Androgen receptor): Not Active

Compound: C[C@]12CC[C@H]3[C@@H](CCC4=CC(=O)CC[C@@]43C)[C@@H]1CC[C@@H]2O [TESTOSTERONE]
- IC50 (Glucocorticoid receptor): 3210 nM
- Ki (Glucocorticoid receptor): 1460 nM

Compound: COc1ccc(/C=C/C(=O)Nc2ccccc2C(=O)O)cc1OC
- IC50 (Androgen receptor): Not Active
